From PubChem BioAssay AID1963446 (Molecular Pharmacology Branch, DTP, NCI, 2024)

System: 993429-296-R-J1-PDC complex spheroid growth, percent test/control
Test: Anticancer human tumor 993429-296-R-J1-PDC patient-derived uterine sarcoma cell line growth inhibition [Asc]
Conditions: for IC50: curve of first compound; for viability, T/C: stronger effect = lower value
Summary of the method: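 Tumor cells were grown as multicellular spheroids with stromal HUVEC and mesenchymal stem cells and treated singly or in combination. Concentrations fell in half-log steps from the clinical Cmax, or from 10 microM where none was known.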

[1] = second compound 0.01 µM, first compound 0.0316 µM
[2] = second compound 0.01 µM, first compound 0.1 µM
[3] = second compound 0.0316 µM, first compound 0.0316 µM
[4] = second compound 0.0316 µM, first compound 0.1 µM
[5] = second compound 0.1 µM, first compound 0.0316 µM
[6] = second compound 0.1 µM, first compound 0.1 µM
[7] = second compound 0.316 µM, first compound 0.0316 µM
[8] = second compound 0.316 µM, first compound 0.1 µM
[9] = second compound 1 µM, first compound 0.0316 µM
[10] = second compound 1 µM, first compound 0.1 µM
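Further: spheroids exposed to compounds for seven days.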

Cc1nc(N2CCC3(CC2)COC(C)C3N)c(CO)nc1Sc1ccnc(N)c1Cl (stereo not given) + CCN1C(C(=O)NC23CCC(C(=O)O)(CC2)CC3)C(c2cccc(Cl)c2F)C2(C(=O)Nc3cc(Cl)ccc32)C12CCCCC2 was tested, and the IC50 (second compound 0.03 µM) was 211 nM, the IC50 (second compound 0.0949 µM) was 159 nM and the IC50 (second compound 0.3 µM) was 176 nM. For the same molecule, the IC50 (second compound 0.949 µM) was 144 nM, the IC50 (second compound 3 µM) was 104 nM and the viability, T/C (second compound 0.03 µM, first compound 0.00949 µM) was 89.3%. The viability, T/C (second compound 0.03 µM, first compound 0.03 µM) was 86.2%, the viability, T/C (second compound 0.03 µM, first compound 0.0949 µM) was 68.7% and the viability, T/C (second compound 0.03 µM, first compound 0.3 µM) was 41.5%. The viability, T/C (second compound 0.03 µM, first compound 0.949 µM) was 33.3%, the viability, T/C (second compound 0.03 µM, first compound 3 µM) was 29.6% and the viability, T/C (second compound 0.0949 µM, first compound 0.00949 µM) was 92.5%. The viability, T/C (second compound 0.0949 µM, first compound 0.03 µM) was 71.7%, the viability, T/C (second compound 0.0949 µM, first compound 0.0949 µM) was 65.2% and the viability, T/C (second compound 0.0949 µM, first compound 0.3 µM) was 35.3%. The viability, T/C (second compound 0.0949 µM, first compound 0.949 µM) was 30.2%, the viability, T/C (second compound 0.0949 µM, first compound 3 µM) was 29.2% and the viability, T/C (second compound 0.3 µM, first compound 0.00949 µM) was 87.7%. For the same molecule, the viability, T/C (second compound 0.3 µM, first compound 0.03 µM) was 79.8%, the viability, T/C (second compound 0.3 µM, first compound 0.0949 µM) was 59% and the viability, T/C (second compound 0.3 µM, first compound 0.3 µM) was 42.6%. The viability, T/C (second compound 0.3 µM, first compound 0.949 µM) was 29.2%, the viability, T/C (second compound 0.3 µM, first compound 3 µM) was 26.8% and the viability, T/C (second compound 0.949 µM, first compound 0.00949 µM) was 86.7%. For the same molecule, the viability, T/C (second compound 0.949 µM, first compound 0.03 µM) was 68.5%, the viability, T/C (second compound 0.949 µM, first compound 0.0949 µM) was 55.9% and the viability, T/C (second compound 0.949 µM, first compound 0.3 µM) was 43.1%. The viability, T/C (second compound 0.949 µM, first compound 0.949 µM) was 27.6%, the viability, T/C (second compound 0.949 µM, first compound 3 µM) was 22.9% and the viability, T/C (second compound 3 µM, first compound 0.00949 µM) was 75.2%. The viability, T/C (second compound 3 µM, first compound 0.03 µM) was 69.9%, the viability, T/C (second compound 3 µM, first compound 0.0949 µM) was 50.1% and the viability, T/C (second compound 3 µM, first compound 0.3 µM) was 34%. For the same molecule, the viability, T/C (second compound 3 µM, first compound 0.949 µM) was 28.8% and the viability, T/C (second compound 3 µM, first compound 3 µM) was 21.6%.
With Cn1ncnc1[C@H]1c2n[nH]c(=O)c3cc(F)cc(c23)N[C@@H]1c1ccc(F)cc1 + CNC(C)C(=O)NC1CN(S(=O)(=O)c2cccc(S(=O)(=O)N3CCC4CCC(C(=O)NC(c5ccccc5)c5ccccc5)N4C(=O)C(NC(=O)C(C)NC)C3)c2)CCC2CCC(C(=O)NC(c3ccccc3)c3ccccc3)N2C1=O the IC50 (second compound 0.01 µM) was 4.14 nM, the IC50 (second compound 0.0316 µM) was 7.99 nM and the IC50 (second compound 0.1 µM) was 3.94 nM. The IC50 (second compound 0.316 µM) was 5.81 nM, the IC50 (second compound 1 µM) was under 0.316 nM and the viability, T/C (second compound 0.01 µM, first compound 0.000316 µM) was 75.9%. For the same molecule, the viability, T/C (second compound 0.01 µM, first compound 0.001 µM) was 54.9%, the viability, T/C (second compound 0.01 µM, first compound 0.00316 µM) was 52.7% and the viability, T/C (second compound 0.01 µM, first compound 0.01 µM) was 47%. It also gave a viability, T/C [1] of 32.6%, a viability, T/C [2] of 21.3% and a viability, T/C (second compound 0.0316 µM, first compound 0.000316 µM) of 60.4%. The viability, T/C (second compound 0.0316 µM, first compound 0.001 µM) was 69.1%, the viability, T/C (second compound 0.0316 µM, first compound 0.00316 µM) was 54.1% and the viability, T/C (second compound 0.0316 µM, first compound 0.01 µM) was 48.9%. For the same molecule, the viability, T/C [3] was 35.9%, the viability, T/C [4] was 26.5% and the viability, T/C (second compound 0.1 µM, first compound 0.000316 µM) was 52%. It also gave a viability, T/C (second compound 0.1 µM, first compound 0.001 µM) of 52.7%, a viability, T/C (second compound 0.1 µM, first compound 0.00316 µM) of 51.2% and a viability, T/C (second compound 0.1 µM, first compound 0.01 µM) of 45.3%. It also gave a viability, T/C [5] of 32.5%, a viability, T/C [6] of 23.2% and a viability, T/C (second compound 0.316 µM, first compound 0.000316 µM) of 56.5%. For the same molecule, the viability, T/C (second compound 0.316 µM, first compound 0.001 µM) was 60.7%, the viability, T/C (second compound 0.316 µM, first compound 0.00316 µM) was 54.8% and the viability, T/C (second compound 0.316 µM, first compound 0.01 µM) was 44.4%. It also gave a viability, T/C [7] of 17.5%, a viability, T/C [8] of 13.7% and a viability, T/C (second compound 1 µM, first compound 0.000316 µM) of 50.6%. For the same molecule, the viability, T/C (second compound 1 µM, first compound 0.001 µM) was 45.7%, the viability, T/C (second compound 1 µM, first compound 0.00316 µM) was 46.9% and the viability, T/C (second compound 1 µM, first compound 0.01 µM) was 39.4%. It also gave a viability, T/C [9] of 21.6% and a viability, T/C [10] of 10.9%.
Molecule O=C(c1cc(Cc2n[nH]c(=O)c3ccccc23)ccc1F)N1CCN(C(=O)C2CC2)CC1 + CNC(C)C(=O)NC1CN(S(=O)(=O)c2cccc(S(=O)(=O)N3CCC4CCC(C(=O)NC(c5ccccc5)c5ccccc5)N4C(=O)C(NC(=O)C(C)NC)C3)c2)CCC2CCC(C(=O)NC(c3ccccc3)c3ccccc3)N2C1=O has an IC50 (second compound 0.01 µM) of 2080 nM, an IC50 (second compound 0.0316 µM) of 1740 nM and an IC50 (second compound 0.1 µM) of 1110 nM. For the same molecule, the IC50 (second compound 0.316 µM) was 406 nM, the IC50 (second compound 1 µM) was 903 nM and the viability, T/C [1] was 63.2%. The viability, T/C [2] was 73.3%, the viability, T/C (second compound 0.01 µM, first compound 0.316 µM) was 64.6% and the viability, T/C (second compound 0.01 µM, first compound 1 µM) was 64.5%. It also gave a viability, T/C (second compound 0.01 µM, first compound 3.16 µM) of 41.8%, a viability, T/C (second compound 0.01 µM, first compound 10 µM) of 17.7% and a viability, T/C [3] of 61.5%. For the same molecule, the viability, T/C [4] was 56.2%, the viability, T/C (second compound 0.0316 µM, first compound 0.316 µM) was 59.5% and the viability, T/C (second compound 0.0316 µM, first compound 1 µM) was 59.6%. The viability, T/C (second compound 0.0316 µM, first compound 3.16 µM) was 40%, the viability, T/C (second compound 0.0316 µM, first compound 10 µM) was 12.4% and the viability, T/C [5] was 53.4%. The viability, T/C [6] was 63.5%, the viability, T/C (second compound 0.1 µM, first compound 0.316 µM) was 54.8% and the viability, T/C (second compound 0.1 µM, first compound 1 µM) was 51.4%. The viability, T/C (second compound 0.1 µM, first compound 3.16 µM) was 36.3%, the viability, T/C (second compound 0.1 µM, first compound 10 µM) was 11.6% and the viability, T/C [7] was 60.2%. The viability, T/C [8] was 55.9%, the viability, T/C (second compound 0.316 µM, first compound 0.316 µM) was 43.6% and the viability, T/C (second compound 0.316 µM, first compound 1 µM) was 45.5%. For the same molecule, the viability, T/C (second compound 0.316 µM, first compound 3.16 µM) was 39%, the viability, T/C (second compound 0.316 µM, first compound 10 µM) was 14.1% and the viability, T/C [9] was 53.2%. It also gave a viability, T/C [10] of 48%, a viability, T/C (second compound 1 µM, first compound 0.316 µM) of 59.5% and a viability, T/C (second compound 1 µM, first compound 1 µM) of 48.7%. For the same molecule, the viability, T/C (second compound 1 µM, first compound 3.16 µM) was 28.1% and the viability, T/C (second compound 1 µM, first compound 10 µM) was 10.7%.
